Mutagenic call data for 8 molecules are collected here from PubChem BioAssay AID1259407 (Chemical Carcinogenesis Research Information System (CCRIS), 2018).

Molecules are shown by their SMILES. Active and inactive are the calls of the source. The rule behind the calls is not given here.

This data set concerns CCRIS mutagenicity, Ames/micronucleus/aberration tests. The data set can be described thus: CCRIS mutagenicity studies.
[1] abbreviates: Test System: AMES SALMONELLA TYPHIMURIUM, Strain/Indicator: TA97, Metabolic Activation: NONE, Method: STANDARD PLATE.
Where [2] appears, read: Test System: AMES SALMONELLA TYPHIMURIUM, Strain/Indicator: TA98, Metabolic Activation: NONE, Method: STANDARD PLATE.
The mark [3] stands for this setting: Test System: AMES SALMONELLA TYPHIMURIUM, Strain/Indicator: TA98, Metabolic Activation: RAT, LIVER, S-9, AROCLOR 1254, Method: STANDARD PLATE.
[4] abbreviates: Test System: AMES SALMONELLA TYPHIMURIUM, Strain/Indicator: TA98, Metabolic Activation: RAT, LIVER, S-9, PHENOBARBITAL, Method: STANDARD PLATE.
[5] abbreviates: Test System: AMES SALMONELLA TYPHIMURIUM, Strain/Indicator: TA100, Metabolic Activation: RAT, LIVER, S-9, AROCLOR 1254, Method: STANDARD PLATE.
Where [6] appears, read: Test System: AMES SALMONELLA TYPHIMURIUM, Strain/Indicator: TA100, Metabolic Activation: RAT, LIVER, S-9, PHENOBARBITAL, Method: STANDARD PLATE.
[7] abbreviates: Test System: AMES SALMONELLA TYPHIMURIUM, Strain/Indicator: TA100, Metabolic Activation: NONE, Method: PREINCUBATION
Where [8] appears, read: Test System: AMES SALMONELLA TYPHIMURIUM, Strain/Indicator: TA100, Metabolic Activation: NONE, Method: STANDARD PLATE.
[9] abbreviates: Test System: AMES SALMONELLA TYPHIMURIUM, Strain/Indicator: TA1535, Metabolic Activation: NONE, Method: STANDARD PLATE.

As for `O=C(O)/C(Cl)=C(\C(=O)O)C(Cl)Cl`, the mutagenic call under setting [1] was “inactive; negative”; the mutagenic call (Test System: AMES SALMONELLA TYPHIMURIUM, Strain/Indicator: TA97, Metabolic Activation: RAT, LIVER, S-9, PHENOBARBITAL, Method: STANDARD PLATE) was “inactive; negative”; the mutagenic call under setting [2] is “inactive; negative”; the mutagenic call under setting [3] is “inactive; negative”; the mutagenic call under setting [4] was “inactive; negative”; the mutagenic call under setting [5] was “inactive; negative”. Also, the mutagenic call is “inactive; negative” under setting [6]; “inactive; negative” (Test System: AMES SALMONELLA TYPHIMURIUM, Strain/Indicator: TA102, Metabolic Activation: NONE, Method: STANDARD PLATE); “inactive; negative” (Test System: AMES SALMONELLA TYPHIMURIUM, Strain/Indicator: TA102, Metabolic Activation: RAT, LIVER, S-9, AROCLOR 1254, Method: STANDARD PLATE).

Turning to `CC(=O)[C@@]1(C)O[C@]12C(=O)C=Cc1ccccc12`, the mutagenic call under setting [7] was “inactive; negative”.

As for `O=C(O)/C=C/c1ccc([N+](=O)[O-])o1`, the mutagenic call (Test System: AMES SALMONELLA TYPHIMURIUM, Strain/Indicator: TA98, Metabolic Activation: NONE, Method: PREINCUBATION) was “active; positive”.

In the case of `[O-][N+](=Nc1ccc(Cl)c(Cl)c1)c1ccc(Cl)c(Cl)c1`, the mutagenic call is, setting by setting: under setting [1], “inactive; negative”; (Test System: AMES SALMONELLA TYPHIMURIUM, Strain/Indicator: TA97, Metabolic Activation: RAT, LIVER, S-9, AROCLOR 1254, Method: STANDARD PLATE) “inactive; negative”; under setting [2], “inactive; negative”; under setting [3], “inactive; negative”; under setting [8], “inactive; negative”; under setting [5], “inactive; negative”. The mutagenic call runs as follows: (Test System: AMES SALMONELLA TYPHIMURIUM, Strain/Indicator: TA104, Metabolic Activation: NONE, Method: STANDARD PLATE) “inactive; negative”; (Test System: AMES SALMONELLA TYPHIMURIUM, Strain/Indicator: TA104, Metabolic Activation: RAT, LIVER, S-9, AROCLOR 1254, Method: STANDARD PLATE) “inactive; negative”; (Test System: CHINESE HAMSTER OVARY, Strain/Indicator: CHO-K1-BH4 (HGPRT), Metabolic Activation: NONE) “inactive; negative”; (Test System: CHINESE HAMSTER OVARY, Strain/Indicator: CHO-K1-BH4 (HGPRT), Metabolic Activation: RAT, LIVER, S-9, AROCLOR 1254) “inactive; negative”.

On to `C1CCCC2OC2CC1` (stereo not given), for which the mutagenic call is, setting by setting: under setting [8], “inactive; negative”; under setting [5], “inactive; negative”; under setting [9], “inactive; negative”; (Test System: AMES SALMONELLA TYPHIMURIUM, Strain/Indicator: TA1535, Metabolic Activation: RAT, LIVER, S-9, AROCLOR 1254, Method: STANDARD PLATE) “inactive; negative”; (Test System: UDS RAT HEPATOCYTES, Strain/Indicator: THY INCORP, Metabolic Activation: NONE) “inactive; negative”.

`O=[N+]([O-])c1cccc2c1[nH]c1ccccc12`: the mutagenic call was “active; positive” under setting [2]; “active; positive” under setting [3]; “active; positive” under setting [4]; “inactive; negative” under setting [8]; “inactive; negative” under setting [6]; “active; positive” (Test System: AMES SALMONELLA TYPHIMURIUM, Strain/Indicator: TA1538, Metabolic Activation: NONE, Method: STANDARD PLATE). Also, the mutagenic call runs as follows: (Test System: AMES SALMONELLA TYPHIMURIUM, Strain/Indicator: TA1538, Metabolic Activation: RAT, LIVER, S-9, PHENOBARBITAL, Method: STANDARD PLATE) “active; positive”; (Test System: AMES SALMONELLA TYPHIMURIUM, Strain/Indicator: TA1977, Metabolic Activation: NONE, Method: STANDARD PLATE) “inactive; negative”; (Test System: AMES SALMONELLA TYPHIMURIUM, Strain/Indicator: TA1977, Metabolic Activation: RAT, LIVER, S-9, PHENOBARBITAL, Method: STANDARD PLATE) “inactive; negative”.

With `CCCN(N=O)/C(N)=N/[N+](=O)[O-]`, the mutagenic call runs as follows: under setting [7], “active; positive”; (Test System: AMES SALMONELLA TYPHIMURIUM, Strain/Indicator: TA100, Metabolic Activation: RAT, LIVER, S-9, KC500 OR PHENOBARBITAL, Method: LIQUID SUSPENSION) “active; positive”; (Test System: AMES SALMONELLA TYPHIMURIUM, Strain/Indicator: TA1535, Metabolic Activation: NONE, Method: PREINCUBATION) “active; positive”; under setting [9], “active; positive”; (Test System: AMES SALMONELLA TYPHIMURIUM, Strain/Indicator: TA1535, Metabolic Activation: RAT, LIVER, S-9, KC500 OR PHENOBARBITAL, Method: LIQUID SUSPENSION) “active; positive”; (Test System: AMES SALMONELLA TYPHIMURIUM, Strain/Indicator: YG7104, Metabolic Activation: NONE, Method: PREINCUBATION) “active; positive”. The mutagenic call reads like this: (Test System: AMES SALMONELLA TYPHIMURIUM, Strain/Indicator: YG7108, Metabolic Activation: NONE, Method: PREINCUBATION) “active; positive”; (Test System: AMES SALMONELLA TYPHIMURIUM, Strain/Indicator: YG7112, Metabolic Activation: NONE, Method: PREINCUBATION) “active; positive”; (Test System: AMES SALMONELLA TYPHIMURIUM, Strain/Indicator: YG7113, Metabolic Activation: NONE, Method: PREINCUBATION) “active; positive”.

For the molecule `Nc1cccc2c(Cl)nsc12`, the mutagenic call (Test System: AMES SALMONELLA TYPHIMURIUM, Strain/Indicator: TA100, Metabolic Activation: S-9, Method: STANDARD PLATE) was “active; positive”.
